Laboratory results as given in patent US20090304692A1, “TRIAZINE COMPOUNDS AS PI3 KINASE AND MTOR INHIBITORS” (Wyeth, priority 2008, published 2009).
Like-named read-outs stand apart in the source and are kept apart here.

What was measured:
[1] = target: PI3K-α (Homo sapiens, UniProt P42336); assay: PI3K-alpha fluorescence polarization assay; settings: read-out: IC50 PI3Kα
[2] = target: Human mTOR (FLAG-TOR) (Homo sapiens, UniProt P42345); assay: mTOR kinase assay (DELFIA format, purified enzyme); format: biochemical; settings: read-out: IC50 mTOR
Sequence of Human mTOR (FLAG-TOR) (P42345 1360-2549 limits assumed): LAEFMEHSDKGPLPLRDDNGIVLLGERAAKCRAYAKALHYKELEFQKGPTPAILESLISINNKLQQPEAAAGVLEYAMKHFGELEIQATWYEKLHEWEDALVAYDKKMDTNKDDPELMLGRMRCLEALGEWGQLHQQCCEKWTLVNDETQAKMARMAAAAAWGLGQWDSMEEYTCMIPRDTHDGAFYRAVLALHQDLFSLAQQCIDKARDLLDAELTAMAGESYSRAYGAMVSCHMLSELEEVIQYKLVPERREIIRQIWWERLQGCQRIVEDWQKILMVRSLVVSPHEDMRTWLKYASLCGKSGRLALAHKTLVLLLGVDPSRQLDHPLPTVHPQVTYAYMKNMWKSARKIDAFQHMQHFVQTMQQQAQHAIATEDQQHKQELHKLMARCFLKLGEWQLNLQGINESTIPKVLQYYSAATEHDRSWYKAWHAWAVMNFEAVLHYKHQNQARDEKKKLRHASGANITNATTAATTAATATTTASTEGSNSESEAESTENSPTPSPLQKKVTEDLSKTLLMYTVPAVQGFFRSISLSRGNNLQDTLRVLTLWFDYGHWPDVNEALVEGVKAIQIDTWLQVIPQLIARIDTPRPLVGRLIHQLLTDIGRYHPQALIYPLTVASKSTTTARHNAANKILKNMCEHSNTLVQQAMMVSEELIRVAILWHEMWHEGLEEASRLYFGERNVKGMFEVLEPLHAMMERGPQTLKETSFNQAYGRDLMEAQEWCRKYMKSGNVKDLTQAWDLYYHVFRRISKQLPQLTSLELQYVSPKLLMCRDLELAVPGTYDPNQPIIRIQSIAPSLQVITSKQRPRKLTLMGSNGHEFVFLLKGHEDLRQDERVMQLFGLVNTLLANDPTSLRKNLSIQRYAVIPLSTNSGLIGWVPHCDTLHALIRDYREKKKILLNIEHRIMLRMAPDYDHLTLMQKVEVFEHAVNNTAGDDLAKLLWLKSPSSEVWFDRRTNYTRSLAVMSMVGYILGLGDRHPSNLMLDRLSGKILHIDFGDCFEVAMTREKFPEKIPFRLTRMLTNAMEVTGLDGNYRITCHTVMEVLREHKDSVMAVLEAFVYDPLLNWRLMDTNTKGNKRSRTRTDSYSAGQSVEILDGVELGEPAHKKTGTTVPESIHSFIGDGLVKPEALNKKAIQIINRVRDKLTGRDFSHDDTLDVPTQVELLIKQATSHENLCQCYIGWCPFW

[3] = system: human prostate PC3-mm2 tumor cell line; assay: In vitro cell culture growth assay (MTS), PC3-mm2; format: cell-based; settings: Homo sapiens, PC3MM2, 72 h, MTS cell growth assay, three days after drug treatment, PC3-mm2 cells; read-out: IC50 PC3-mm2
[4] = system: human breast MDA-MB-361 tumor cell line; assay: In vitro cell culture growth assay (MTS), MDA-MB-361; format: cell-based; settings: Homo sapiens, MTS cell growth assay, three days after drug treatment, MDA-MB-361 cells, read-out: IC50 MDA-MB-361
[5] = target: PI3K-γ (Homo sapiens, UniProt P48736); assay: PI3K-gamma fluorescence polarization assay; settings: read-out: IC50 PI3Kγ
Sequence of PI3K-γ (P48736 whole entry, species assumed): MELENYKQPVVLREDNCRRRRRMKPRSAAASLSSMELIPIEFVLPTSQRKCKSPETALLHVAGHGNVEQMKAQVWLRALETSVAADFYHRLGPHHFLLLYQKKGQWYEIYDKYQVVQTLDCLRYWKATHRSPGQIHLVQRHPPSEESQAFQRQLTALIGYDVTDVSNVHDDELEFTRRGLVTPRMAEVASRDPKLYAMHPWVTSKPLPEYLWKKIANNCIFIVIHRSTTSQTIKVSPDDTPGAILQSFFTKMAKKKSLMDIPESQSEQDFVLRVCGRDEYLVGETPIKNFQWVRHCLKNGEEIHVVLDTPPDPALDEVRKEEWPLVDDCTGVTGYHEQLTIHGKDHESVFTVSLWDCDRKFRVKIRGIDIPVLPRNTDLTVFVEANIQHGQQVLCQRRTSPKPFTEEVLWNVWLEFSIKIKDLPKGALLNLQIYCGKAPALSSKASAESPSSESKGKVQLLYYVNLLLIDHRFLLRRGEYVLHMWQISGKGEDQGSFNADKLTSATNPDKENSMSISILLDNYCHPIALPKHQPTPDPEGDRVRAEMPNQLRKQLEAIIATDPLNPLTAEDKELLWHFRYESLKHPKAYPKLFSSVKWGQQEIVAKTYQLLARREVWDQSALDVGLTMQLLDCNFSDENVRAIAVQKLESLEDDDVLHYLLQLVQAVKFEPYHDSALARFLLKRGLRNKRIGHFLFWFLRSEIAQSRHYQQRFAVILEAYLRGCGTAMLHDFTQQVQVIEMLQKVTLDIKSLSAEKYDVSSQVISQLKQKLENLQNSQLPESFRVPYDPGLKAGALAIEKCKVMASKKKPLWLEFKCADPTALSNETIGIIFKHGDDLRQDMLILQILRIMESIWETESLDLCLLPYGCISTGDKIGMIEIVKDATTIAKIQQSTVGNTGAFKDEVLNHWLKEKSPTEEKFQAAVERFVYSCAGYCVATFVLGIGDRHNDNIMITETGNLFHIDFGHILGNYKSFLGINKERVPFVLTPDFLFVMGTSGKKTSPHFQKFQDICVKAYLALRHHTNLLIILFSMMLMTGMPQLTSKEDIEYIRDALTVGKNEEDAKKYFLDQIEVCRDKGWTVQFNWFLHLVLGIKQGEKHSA

Sequence of PI3K-α (P42336 whole entry, species assumed): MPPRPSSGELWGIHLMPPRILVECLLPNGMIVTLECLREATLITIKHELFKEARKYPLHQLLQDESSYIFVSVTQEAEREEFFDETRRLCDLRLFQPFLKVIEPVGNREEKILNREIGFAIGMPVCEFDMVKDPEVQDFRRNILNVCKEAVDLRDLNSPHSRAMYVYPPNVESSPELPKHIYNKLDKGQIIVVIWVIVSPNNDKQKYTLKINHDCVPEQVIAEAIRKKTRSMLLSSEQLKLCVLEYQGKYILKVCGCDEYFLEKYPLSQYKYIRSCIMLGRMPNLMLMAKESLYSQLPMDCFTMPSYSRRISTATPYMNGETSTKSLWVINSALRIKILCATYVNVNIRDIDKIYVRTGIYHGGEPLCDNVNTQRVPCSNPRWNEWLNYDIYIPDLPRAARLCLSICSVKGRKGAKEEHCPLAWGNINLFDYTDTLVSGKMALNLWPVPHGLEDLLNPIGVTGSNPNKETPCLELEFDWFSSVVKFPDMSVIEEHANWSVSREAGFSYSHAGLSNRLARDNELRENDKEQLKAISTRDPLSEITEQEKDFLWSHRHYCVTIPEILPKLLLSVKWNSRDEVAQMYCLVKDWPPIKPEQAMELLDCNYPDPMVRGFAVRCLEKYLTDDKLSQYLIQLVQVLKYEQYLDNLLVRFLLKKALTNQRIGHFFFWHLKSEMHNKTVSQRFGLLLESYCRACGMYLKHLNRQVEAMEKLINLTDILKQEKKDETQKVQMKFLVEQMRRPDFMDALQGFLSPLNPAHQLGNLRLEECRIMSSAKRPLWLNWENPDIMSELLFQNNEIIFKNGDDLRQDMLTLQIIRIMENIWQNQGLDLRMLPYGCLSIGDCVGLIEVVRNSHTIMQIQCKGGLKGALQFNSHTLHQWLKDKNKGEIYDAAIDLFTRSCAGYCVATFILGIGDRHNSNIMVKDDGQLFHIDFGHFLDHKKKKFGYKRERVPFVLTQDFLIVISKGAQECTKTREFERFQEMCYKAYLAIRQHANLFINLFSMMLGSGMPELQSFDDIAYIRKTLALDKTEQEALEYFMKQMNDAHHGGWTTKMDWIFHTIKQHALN
Sequence of PI3K-α (P27986 whole entry partner, species assumed): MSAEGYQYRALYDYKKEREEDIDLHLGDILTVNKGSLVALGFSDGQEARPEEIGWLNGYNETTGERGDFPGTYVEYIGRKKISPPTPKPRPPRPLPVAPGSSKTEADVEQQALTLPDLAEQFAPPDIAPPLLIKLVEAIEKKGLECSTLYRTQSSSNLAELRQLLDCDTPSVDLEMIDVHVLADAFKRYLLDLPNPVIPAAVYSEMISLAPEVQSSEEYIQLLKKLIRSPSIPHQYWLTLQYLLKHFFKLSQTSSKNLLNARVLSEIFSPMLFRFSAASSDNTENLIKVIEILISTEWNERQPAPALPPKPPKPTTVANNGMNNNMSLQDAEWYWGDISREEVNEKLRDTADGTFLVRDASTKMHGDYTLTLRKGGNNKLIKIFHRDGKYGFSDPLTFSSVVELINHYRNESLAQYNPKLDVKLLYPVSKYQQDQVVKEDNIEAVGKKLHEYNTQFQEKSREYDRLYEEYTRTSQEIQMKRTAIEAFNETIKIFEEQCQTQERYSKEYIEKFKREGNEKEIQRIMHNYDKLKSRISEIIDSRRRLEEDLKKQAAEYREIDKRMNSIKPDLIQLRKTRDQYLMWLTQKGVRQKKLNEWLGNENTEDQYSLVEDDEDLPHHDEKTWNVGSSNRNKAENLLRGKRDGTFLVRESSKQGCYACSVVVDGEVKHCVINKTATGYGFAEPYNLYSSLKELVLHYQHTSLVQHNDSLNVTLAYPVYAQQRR

SMILES | IC50 [1] [nM] | IC50 [2] [nM] | IC50 [3] [nM] | IC50 ([4]; 72 h) [nM] | IC50 [5] [nM] | IC50 ([4]; MDA-MB-361, 72 h) [nM]
CCNC(=O)N1CCC(Oc2nc(-c3ccc(NC(=O)Nc4ccncc4)cc3)nc(N3CCOCC3)n2)CC1 [Example 690, N-ethyl-4-[(4-morpholin-4-yl-6-{4-[(pyridin-4-ylcarbamoyl)amino]phenyl}-1,3,5-triazin-2-yl)oxy]piperidine-1-carboxamide] | 5 | 0.525 | 405 | 112 | 83.5 | –
CC(C)(C)OC(=O)N1CCC(Oc2nc(-c3ccc(NC(=O)Nc4ccncc4)cc3)nc(N3CCOCC3)n2)CC1 [Example 691, tert-butyl 4-[(4-morpholin-4-yl-6-{4-[(pyridin-4-ylcarbamoyl)amino]phenyl}-1,3,5-triazin-2-yl)oxy]piperidine-1-carboxylate] | 6 | 1.35 | 131 | 52 | 199 | –
NS(=O)(=O)N1CCC(Oc2nc(-c3ccc(NC(=O)Nc4ccncc4)cc3)nc(N3CCOCC3)n2)CC1 [Example 692, 4-[(4-morpholin-4-yl-6-{4-[(pyridin-4-ylcarbamoyl)amino]phenyl}-1,3,5-triazin-2-yl)oxy]piperidine-1-sulfonamide] | 3.2 | 3.75 | 326 | 97 | 29 | –
CN(C)CCNC(=O)c1ccc(NC(=O)Nc2ccc(-c3nc(N4CCOCC4)nc(N4C5CCC4COC5)n3)cc2)cc1 [Example 694, N-[2-(dimethylamino)ethyl]-4-[({4-[4-morpholin-4-yl-6-(3-oxa-8-azabicyclo[3.2.1]oct-8-yl)-1,3,5-triazin-2-yl]phenyl}carbamoyl)amino]benzamide] | 2 | 0.245 | 11 | < 3 | 40 | –
CN(C)C(=O)c1ccc(NC(=O)Nc2ccc(-c3nc(N4CCOCC4)nc(N4C5CCC4COC5)n3)cc2)cc1 [Example 695, N,N-dimethyl-4-[({4-[4-morpholin-4-yl-6-(3-oxa-8-azabicyclo[3.2.1]oct-8-yl)-1,3,5-triazin-2-yl]phenyl}carbamoyl)amino]benzamide] | 4 | 0.28 | 7 | 6 | 70.5 | –
CNC(=O)c1ccc(NC(=O)Nc2ccc(-c3nc(N4CCOCC4)nc(N4C5CCC4COC5)n3)cc2)cc1 [Example 696, N-methyl-4-[({4-[4-morpholin-4-yl-6-(3-oxa-8-azabicyclo[3.2.1]oct-8-yl)-1,3,5-triazin-2-yl]phenyl}carbamoyl)amino]benzamide] | 4.5 | 0.275 | 13 | – | 73.5 | 13
CN1CCN(C(=O)c2ccc(NC(=O)Nc3ccc(-c4nc(N5CCOCC5)nc(N5C6CCC5COC6)n4)cc3)cc2)CC1 [Example 697, 1-{4-[(4-methylpiperazin-1-yl)carbonyl]phenyl}-3-{4-[4-morpholin-4-yl-6-(3-oxa-8-azabicyclo[3.2.1]oct-8-yl)-1,3,5-triazin-2-yl]phenyl}urea] | 2.7 | 0.459 | < 30 | – | 42.7 | < 30
CN(C)CCN(C)C(=O)c1ccc(NC(=O)Nc2ccc(-c3nc(N4CCOCC4)nc(N4C5CCC4COC5)n3)cc2)cc1 [Example 698, N-[2-(dimethylamino)ethyl]-N-methyl-4-[({4-[4-morpholin-4-yl-6-(3-oxa-8-azabicyclo[3.2.1]oct-8-yl)-1,3,5-triazin-2-yl]phenyl}carbamoyl)amino]benzamide] | 2.7 | 0.302 | 6 | < 3 | 44.7 | –
O=C(Nc1ccc(C(=O)NCCO)cc1)Nc1ccc(-c2nc(N3CCOCC3)nc(N3C4CCC3COC4)n2)cc1 [Example 699, N-(2-hydroxyethyl)-4-[({4-[4-morpholin-4-yl-6-(3-oxa-8-azabicyclo[3.2.1]oct-8-yl)-1,3,5-triazin-2-yl]phenyl}carbamoyl)amino]benzamide] | 5 | 0.3 | 40 | 36 | 62.5 | –
CN(C)CCCNC(=O)c1ccc(NC(=O)Nc2ccc(-c3nc(N4CCOCC4)nc(N4C5CCC4COC5)n3)cc2)cc1 [Example 700, N-[3-(dimethylamino)propyl]-4-[({4-[4-morpholin-4-yl-6-(3-oxa-8-azabicyclo[3.2.1]oct-8-yl)-1,3,5-triazin-2-yl]phenyl}carbamoyl)amino]benzamide] | 2.5 | 0.53 | 20 | 5 | 41.5 | –
CNCCN(C)C(=O)c1ccc(NC(=O)Nc2ccc(-c3nc(N4CCOCC4)nc(N4C5CCC4COC5)n3)cc2)cc1 [Example 701, N-methyl-N-[2-(methylamino)ethyl]-4-[({4-[4-morpholin-4-yl-6-(3-oxa-8-azabicyclo[3.2.1]oct-8-yl)-1,3,5-triazin-2-yl]phenyl}carbamoyl)amino]benzamide] | 2 | 0.36 | < 30 | < 30 | 25 | –
CC1CN(C(=O)c2ccc(NC(=O)Nc3ccc(-c4nc(N5CCOCC5)nc(N5C6CCC5COC6)n4)cc3)cc2)CC(C)N1 (stereo not shown) [Example 703, 1-{4-[(3,5-dimethylpiperazin-1-yl)carbonyl]phenyl}-3-{4-[4-morpholin-4-yl-6-(3-oxa-8-azabicyclo[3.2.1]oct-8-yl)-1,3,5-triazin-2-yl]phenyl}urea] | 1.5 | 0.51 | 13 | – | 23.5 | < 3
O=C(Nc1ccc(-c2nc(N3CCOCC3)nc(N3C4CCC3COC4)n2)cc1)Nc1ccnc(Cl)c1 [Example 746, 1-(2-chloropyridin-4-yl)-3-{4-[4-morpholin-4-yl-6-(3-oxa-8-azabicyclo[3.2.1]oct-8-yl)-1,3,5-triazin-2-yl]phenyl}urea] | 23.5 | 1.27 | 118 | 93 | 99 | –
O=C(Nc1ccc(-c2nc(N3CCOCC3)nc(N3C4CCC3COC4)n2)cc1)Nc1ccc(-c2nc(N3CCOCC3)nc(N3C4CCC3COC4)n2)cc1 [Example 751, 1,3-bis{4-[4-morpholin-4-yl-6-(3-oxa-8-azabicyclo[3.2.1]oct-8-yl)-1,3,5-triazin-2-yl]phenyl}urea] | 143 | 3 | 238 | – | 404 | 144
CN(C)C1CCN(C(=O)c2ccc(NC(=O)Nc3ccc(-c4nc(N5CCOCC5)nc(N5C6CCC5COC6)n4)cc3)cc2)CC1 [Example 752, 1-(4-{[4-(dimethylamino)piperidin-1-yl]carbonyl}phenyl)-3-{4-[4-morpholin-4-yl-6-(3-oxa-8-azabicyclo[3.2.1]oct-8-yl)-1,3,5-triazin-2-yl]phenyl}urea] | 1.2 | 0.29 | 6 | – | 18.5 | < 3
CN1CCN(CCNC(=O)c2ccc(NC(=O)Nc3ccc(-c4nc(N5CCOCC5)nc(N5C6CCC5COC6)n4)cc3)cc2)CC1 [Example 753, N-[2-(4-methylpiperazin-1-yl)ethyl]-4-[({4-[4-morpholin-4-yl-6-(3-oxa-8-azabicyclo[3.2.1]oct-8-yl)-1,3,5-triazin-2-yl]phenyl}carbamoyl)amino]benzamide] | 2 | 0.315 | 14 | 4 | 31 | –
CC(C)N1CCN(C(=O)c2ccc(NC(=O)Nc3ccc(-c4nc(N5CCOCC5)nc(N5C6CCC5COC6)n4)cc3)cc2)CC1 [Example 754, 1-{4-[(4-isopropylpiperazin-1-yl)carbonyl]phenyl}-3-{4-[4-morpholin-4-yl-6-(3-oxa-8-azabicyclo[3.2.1]oct-8-yl)-1,3,5-triazin-2-yl]phenyl}urea] | 3 | 0.327 | 70.8 | – | 28 | 31.3
O=C(Nc1ccc(C(=O)N2CCN(C3CCCC3)CC2)cc1)Nc1ccc(-c2nc(N3CCOCC3)nc(N3C4CCC3COC4)n2)cc1 [Example 755, 1-{4-[(4-cyclopentylpiperazin-1-yl)carbonyl]phenyl}-3-{4-[4-morpholin-4-yl-6-(3-oxa-8-azabicyclo[3.2.1]oct-8-yl)-1,3,5-triazin-2-yl]phenyl}urea] | 2 | 0.57 | 13 | – | 26.5 | 3
O=C(Nc1ccc(C(=O)N2CCNCC2)cc1)Nc1ccc(-c2nc(N3CCOCC3)nc(N3C4CCC3COC4)n2)cc1 [Example 756, 1-{4-[4-morpholin-4-yl-6-(3-oxa-8-azabicyclo[3.2.1]oct-8-yl)-1,3,5-triazin-2-yl]phenyl}-3-[4-(piperazin-1-ylcarbonyl)phenyl]urea] | 0.5 | 0.2 | 12 | – | 7 | < 3
O=C(Nc1ccc(C(=O)N2CCC(N3CCOCC3)CC2)cc1)Nc1ccc(-c2nc(N3CCOCC3)nc(N3C4CCC3COC4)n2)cc1 [Example 757, 1-{4-[4-morpholin-4-yl-6-(3-oxa-8-azabicyclo[3.2.1]oct-8-yl)-1,3,5-triazin-2-yl]phenyl}-3-{4-[(4-morpholin-4-ylpiperidin-1-yl)carbonyl]phenyl}urea] | 5.5 | 0.28 | 6 | – | 37.5 | < 3
